Results taken from patent US20190249218A1, “Method, Medium and Kit for Detecting Multiple Aminoglycoside Resistance Including 16S rRNA Methylase Mediated Resistance in Gram-Negative Bacteria” (priority 2016, published 2019).
≈ marks a conversion by molar mass, not a printed value. Like-named read-outs stand apart in the source and are kept apart here.

Experiments:
Experiment in all cases: MIC by broth microdilution
E. coli = format: cell-based, Escherichia coli; conditions: for MIC: Escherichia coli, read-out: MIC
Procedure: (§1) MICs of amikacin and gentamicin were determined using the broth microdilution method in cation-adjusted Mueller-Hinton broth, as recommended by the Clinical Laboratory Standard Institute (CLSI) guidelines (8). Amikacin and gentamicin sulfate (Fluorochem, Dertbyshire, UK) were tested over a range of dilutions from 0.25 to 256 μg/ml. A final inoculum of 5.10^5 CFU/ml of each strain was distributed in the 96 wells tray (Sarstedt, Ntimbrecht, Germany). All experiments were repeated in triplicate and E. coli ATCC 25922 was used as quality control. According to the CLSI breakpoints (9), Enterobacteriaceae isolates with gentamicin MICs≤4 and amikacin MICs≤16 mg/L were categorized as susceptible, while those with gentamicin MICs≥16 and amikacin MICs≥64 mg/L were categorized as resistant.
(§2) MICs of amikacin and gentamicin were determined as described above in Example 1.

E. cloacae = format: cell-based, Enterobacter cloacae; conditions: for MIC: Enterobacter cloacae, read-out: MIC
Procedure: as §1, §2

P. mirabilis = format: cell-based, Proteus mirabilis; conditions: for MIC: Proteus mirabilis, read-out: MIC
Procedure: as §1, §2

P. stuartii = format: cell-based, Providencia stuartii; conditions: for MIC: Providencia stuartii, read-out: MIC
Procedure: as §1, §2

P. rettgeri = format: cell-based, Providencia rettgeri; conditions: AAC(2′)
Procedure: as §1, §2

S. marcescens = format: cell-based, Serratia marcescens; conditions: AAC(3)-I
Procedure: as §1, §2

A. baumannii = format: cell-based, Acinetobacter baumannii; conditions: Acinetobacter baumannii
Procedure: as §1, §2

P. aeruginosa = format: cell-based, Pseudomonas aeruginosa; conditions: Pseudomonas aeruginosa, read-out: MIC
Procedure: as §1, §2

[1] = isolate 92/31, E. coli, AAC(3)-IV
[2] = isolate 390, E. coli, AAC(3)-IV
[3] = isolate 1054 (first entry), E. coli, AAC(6′)-I
[4] = isolate 1054 (second entry), E. coli, AAC(6′)-I
[5] = isolate 1488, E. coli, AAC(6′)-II
[6] = isolate 4000, E. coli, APH(3′)-I + AAC(3)-V
[7] = isolate 22089, E. coli, AAC(3)-I + AAC(3)-V
[8] = isolate 122971, E. coli, ANT(2″)
[9] = isolate R1436, E. coli, AG susceptible
[10] = isolate R1438, E. coli, AG susceptible
[11] = isolate R4100, E. coli TOP10, npmA
[12] = isolate RP4, E. coli, APH(3′)-Ib
[13] = isolate pFCT1163, E. coli, AAC(6′)-Ia
[14] = isolate pFCT4392, E. coli, AAC(3)-Ia
[15] = isolate pWP701, E. coli, AAC(3)-IV
[16] = isolate 1110, E. cloacae, ANT(2″)
[17] = isolate HM, E. cloacae, AG susceptible
[18] = isolate R713, E. cloacae, AG susceptible
[19] = isolate R1433, E. cloacae, AG susceptible
[20] = isolate R2258, E. cloacae, armA
[21] = isolate R2260, P. mirabilis, AG susceptible
[22] = isolate BM2667, P. stuartii, APH(3′)-VI + AAC(2′)
[23] = isolate R265, P. stuartii, rmtC

## NCC[C@H](O)C(=O)N[C@@H]1C[C@H](N)[C@@H](O[C@H]2O[C@H](CN)[C@@H](O)[C@H](O)[C@H]2O)[C@H](O)[C@H]1O[C@H]1O[C@H](CO)[C@@H](O)[C@H](N)[C@H]1O [Amikacin]
E. coli; ATCC25922, isolate FR136, E. coli ATCC 25922, AG susceptible
  MIC: 2 µg/mL (≈ 3.42 µM)
E. coli; ATCC25922, strain R2298, E. coli ATCC 25922, susceptible
  MIC: 2 µg/mL (≈ 3.42 µM)
E. coli; ATCC35218, isolate R2278, E. coli ATCC 35218, AG susceptible
  MIC: 4 µg/mL (≈ 6.83 µM)
E. coli; ATCC35218, strain R2278, E. coli ATCC 35218, susceptible
  MIC: 4 µg/mL (≈ 6.83 µM)
E. coli; isolate 62Carb, E. coli, rmtB
  MIC: > 256 µg/mL
  Amikacin Phenotype: R (amikacin MICs≥64 mg/L were categorized as resistant)
E. coli; [1]
  MIC: 4 µg/mL (≈ 6.83 µM)
  Amikacin Phenotype: S (amikacin MICs≤16 mg/L were categorized as susceptible)
E. coli; isolate 97, E. coli, AAC(3)-IV
  MIC: 2 µg/mL (≈ 3.42 µM)
  Amikacin Phenotype: S (amikacin MICs≤16 mg/L were categorized as susceptible)
E. coli; [2]
  MIC: 16 µg/mL (≈ 27.3 µM)
  Amikacin Phenotype: S (amikacin MICs≤16 mg/L were categorized as susceptible)
E. coli; [3]
  MIC: 8 µg/mL (≈ 13.7 µM)
  Amikacin Phenotype: S (amikacin MICs≤16 mg/L were categorized as susceptible)
E. coli; [4]
  MIC: 16 µg/mL (≈ 27.3 µM)
  Amikacin Phenotype: S (amikacin MICs≤16 mg/L were categorized as susceptible)
E. coli; [5]
  MIC: 4 µg/mL (≈ 6.83 µM)
  Amikacin Phenotype: S (amikacin MICs≤16 mg/L were categorized as susceptible)
E. coli; [6]
  MIC: 4 µg/mL
  Amikacin Phenotype: S (amikacin MICs≤16 mg/L were categorized as susceptible)
E. coli; [7]
  MIC: 16 µg/mL
  Amikacin Phenotype: S (amikacin MICs≤16 mg/L were categorized as susceptible)
E. coli; [8]
  MIC: 4 µg/mL (≈ 6.83 µM)
  Amikacin Phenotype: S (amikacin MICs≤16 mg/L were categorized as susceptible)
E. coli; isolate E28, E. coli, rmtB
  MIC: > 256 µg/mL
  Amikacin Phenotype: R (amikacin MICs≥64 mg/L were categorized as resistant)
E. coli; isolate R107, E. coli, rmtB
  MIC: > 256 µg/mL
  Amikacin Phenotype: R (amikacin MICs≥64 mg/L were categorized as resistant)
E. coli; isolate R1012, E. coli, armA
  MIC: > 256 µg/mL
  Amikacin Phenotype: R (amikacin MICs≥64 mg/L were categorized as resistant)
E. coli; [9]
  MIC: 2 µg/mL (≈ 3.42 µM)
  Amikacin Phenotype: S (amikacin MICs≤16 mg/L were categorized as susceptible)
E. coli; [10]
  MIC: 2 µg/mL (≈ 3.42 µM)
  Amikacin Phenotype: S (amikacin MICs≤16 mg/L were categorized as susceptible)
E. coli; [11]
  MIC: 128 µg/mL (≈ 219 µM)
  Amikacin Phenotype: R (amikacin MICs≥64 mg/L were categorized as resistant)
E. coli; [12]
  MIC: 1 µg/mL (≈ 1.71 µM)
  Amikacin Phenotype: S (amikacin MICs≤16 mg/L were categorized as susceptible)
E. coli; [13]
  MIC: 128 µg/mL (≈ 219 µM)
  Amikacin Phenotype: R (amikacin MICs≥64 mg/L were categorized as resistant)
E. coli; [14]
  MIC: 1 µg/mL (≈ 1.71 µM)
  Amikacin Phenotype: S (amikacin MICs≤16 mg/L were categorized as susceptible)
E. coli; [15]
  MIC: 1 µg/mL (≈ 1.71 µM)
  Amikacin Phenotype: S (amikacin MICs≤16 mg/L were categorized as susceptible)
E. coli; strain 62Carb, E. coli, rmtB
  MIC: > 512 µg/mL
E. coli; strain 92/31, E. coli, AAC(3)-IV
  MIC: 4 µg/mL (≈ 6.83 µM)
E. coli; strain 97, E. coli, AAC(3)-IV
  MIC: 2 µg/mL (≈ 3.42 µM)
E. coli; strain 390, E. coli, AAC(3)-IV
  MIC: 16 µg/mL (≈ 27.3 µM)
E. coli; strain 1054a, E. coli, AAC(6′)-I
  MIC: 8 µg/mL (≈ 13.7 µM)
E. coli; strain 1054b, E. coli, AAC(6′)-I
  MIC: 16 µg/mL (≈ 27.3 µM)
E. coli; strain 1488, E. coli, AAC(6′)-II
  MIC: 4 µg/mL (≈ 6.83 µM)
E. coli; strain 4000, E. coli, APH(3′)-I + AAC(3)-V
  MIC: 4 µg/mL
E. coli; strain 22089, E. coli, AAC(3)-I + AAC(3)-V
  MIC: 16 µg/mL
E. coli; strain 122971, E. coli, ANT(2″)
  MIC: 4 µg/mL (≈ 6.83 µM)
E. coli; strain E28, E. coli, rmtB
  MIC: > 512 µg/mL
E. coli; strain R107, E. coli, rmtB
  MIC: > 512 µg/mL
E. coli; strain R1012, E. coli, armA
  MIC: > 512 µg/mL
E. coli; strain R1436, E. coli, susceptible
  MIC: 2 µg/mL (≈ 3.42 µM)
E. coli; strain R1438, E. coli, susceptible
  MIC: 2 µg/mL (≈ 3.42 µM)
E. coli; strain R4100, E. coli, npmA
  MIC: 258 µg/mL (≈ 441 µM)
E. coli; strain RP4, E. coli, APH(3′)-Ib
  MIC: 1 µg/mL (≈ 1.71 µM)
E. coli; strain pFCT1163, E. coli, AAC(6′)-Ia
  MIC: 128 µg/mL (≈ 219 µM)
E. coli; strain pFCT4392, E. coli, AAC(3)-Ia
  MIC: 1 µg/mL (≈ 1.71 µM)
E. coli; strain pWP701, E. coli, AAC(3)-IV
  MIC: 1 µg/mL (≈ 1.71 µM)
E. coli; isolate FR136, E. coli ATCC 25922, AG susceptible
  Amikacin Phenotype: S (amikacin MICs≤16 mg/L were categorized as susceptible)
E. coli; isolate R262, E. coli, rmtC
  Amikacin Phenotype: R (amikacin MICs≥64 mg/L were categorized as resistant)
E. coli; isolate R451, E. coli, rmtC
  Amikacin Phenotype: R (amikacin MICs≥64 mg/L were categorized as resistant)
E. coli; isolate R989, E. coli, armA
  Amikacin Phenotype: R (amikacin MICs≥64 mg/L were categorized as resistant)
E. coli; isolate R990, E. coli, rmtB
  Amikacin Phenotype: R (amikacin MICs≥64 mg/L were categorized as resistant)
E. coli; isolate R2278, E. coli ATCC 35218, AG susceptible
  Amikacin Phenotype: S (amikacin MICs≤16 mg/L were categorized as susceptible)
E. cloacae; [16]
  MIC: 1 µg/mL (≈ 1.71 µM)
  Amikacin Phenotype: S (amikacin MICs≤16 mg/L were categorized as susceptible)
E. cloacae; [17]
  MIC: 4 µg/mL (≈ 6.83 µM)
  Amikacin Phenotype: S (amikacin MICs≤16 mg/L were categorized as susceptible)
E. cloacae; [18]
  MIC: 4 µg/mL (≈ 6.83 µM)
  Amikacin Phenotype: S (amikacin MICs≤16 mg/L were categorized as susceptible)
E. cloacae; [19]
  MIC: 4 µg/mL (≈ 6.83 µM)
  Amikacin Phenotype: S (amikacin MICs≤16 mg/L were categorized as susceptible)
E. cloacae; [20]
  MIC: > 256 µg/mL
  Amikacin Phenotype: R (amikacin MICs≥64 mg/L were categorized as resistant)
E. cloacae; strain 1110, E. cloacae, ANT(2″)
  MIC: 1 µg/mL (≈ 1.71 µM)
E. cloacae; strain HM, E. cloacae, susceptible
  MIC: 4 µg/mL (≈ 6.83 µM)
E. cloacae; strain R713, E. cloacae, susceptible
  MIC: 4 µg/mL (≈ 6.83 µM)
E. cloacae; strain R1433, E. cloacae, susceptible
  MIC: 4 µg/mL (≈ 6.83 µM)
E. cloacae; strain R2258, E. cloacae, armA
  MIC: > 512 µg/mL
P. mirabilis; [21]
  MIC: 4 µg/mL (≈ 6.83 µM)
  Amikacin Phenotype: S (amikacin MICs≤16 mg/L were categorized as susceptible)
P. mirabilis; strain R263, P. mirabilis, armA
  MIC: > 512 µg/mL
P. mirabilis; strain R2260, P. mirabilis, susceptible
  MIC: 4 µg/mL (≈ 6.83 µM)
P. stuartii; [22]
  MIC: 64 µg/mL
  Amikacin Phenotype: R (amikacin MICs≥64 mg/L were categorized as resistant)
P. stuartii; isolate R38, P. stuartii, rmtC
  MIC: > 256 µg/mL
  Amikacin Phenotype: R (amikacin MICs≥64 mg/L were categorized as resistant)
P. stuartii; [23]
  MIC: > 256 µg/mL
  Amikacin Phenotype: R (amikacin MICs≥64 mg/L were categorized as resistant)
P. stuartii; strain BM2667, P. stuartii, APH(3′)-VI + AAC(2′)
  MIC: 64 µg/mL
P. stuartii; strain R38, P. stuartii, rmtC
  MIC: > 512 µg/mL
P. stuartii; strain R265, P. stuartii, rmtC
  MIC: > 512 µg/mL
P. rettgeri; Providencia rettgeri, isolate 531, P. rettgeri, read-out: MIC
  MIC: 16 µg/mL (≈ 27.3 µM)
P. rettgeri; isolate 531, P. rettgeri
  Amikacin Phenotype: S (amikacin MICs≤16 mg/L were categorized as susceptible)
P. rettgeri; strain 531, P. rettgeri
  MIC: 16 µg/mL (≈ 27.3 µM)
S. marcescens; Serratia marcescens, isolate 4290, S. marcescens, read-out: MIC
  MIC: 4 µg/mL (≈ 6.83 µM)
S. marcescens; isolate 4290, S. marcescens
  Amikacin Phenotype: S (amikacin MICs≤16 mg/L were categorized as susceptible)
S. marcescens; strain 4290, S. marcescens
  MIC: 4 µg/mL (≈ 6.83 µM)
A. baumannii
  MIC: 128 µg/mL (≈ 219 µM)
A. baumannii; strain 4996, A. baumannii, AAC(6′)-I, read-out: MIC
  MIC: 64 µg/mL (≈ 109 µM)
A. baumannii; strain BM2580, A. baumannii, APH(3′)-VI, read-out: MIC
  MIC: 64 µg/mL (≈ 109 µM)
A. baumannii; strain R264, A. baumannii, armA, read-out: MIC
  MIC: > 512 µg/mL
A. baumannii; strain R1395, A. baumannii, susceptible, read-out: MIC
  MIC: 2 µg/mL (≈ 3.42 µM)
P. aeruginosa; strain 3655, P. aeruginosa, APH(3′)-I + ANT(2″)
  MIC: 1 µg/mL
P. aeruginosa; strain 3658, P. aeruginosa, APH(3′)-I + ANT(4′)-II
  MIC: > 128 µg/mL
P. aeruginosa; strain 28233, P. aeruginosa, APH(3′)-I + AAC(3)-I
  MIC: 4 µg/mL
P. aeruginosa; strain R191, P. aeruginosa, susceptible
  MIC: 8 µg/mL (≈ 13.7 µM)
